# Data reported in US20220264878A1, “HERBICIDAL COMPOSITION CONTAINING R-TYPE PYRIDYLOXY CARBOXYLIC ACID DERIVATIVE AND USE THEREOF” (Qingdao Kingagroot Chemical Compound Co., Ltd., priority 2019, published 2022).
# How the values were obtained:
# Type in all cases: in vivo
# [1] = system: Chloris virgata; test: Post-emergence foliage spray, pot culture, fresh weight inhibition (Tables 1-48, 51-98, 101-148; 24 days)
# From the text: (§1) Table 1-48, 51-98, 101-148: Echinochloa crusgalli var. zelayensis, Eclipta prostrate, Galium aparine L., Alopecurus aequalis, Alopecurus japonicus, Lindernia procumbens, Veronica persica^1, Malachium aquaticum, Beckmannia syzigachne, Stellaria media were collected in Huai'an of Jiangsu Province; Commelina communis, Sonchus arvensis, Setaria glauca, Chloris virgata, Setaria faberi, Sonchus oleraceus L., Echinochloa oryzoides, Cirsium setosum, Xanthium strumarium were collected in Qiqiha'er of Heilongjiang Province; Sinapis arvensis, Veronica persica^2 were collected in Zhumadian of Henan Province; Ludwigia prostrate, Ammannia arenaria were collected in Zhuji of Zhejiang Province; Amaranthus retrojlexus, Descurainia sophia, Digitaria sanguinalis, Setaria viridis, Conyza Canadensis, Capsella bursa-pastoris, Eleusine indica, Ipomoea purpurea, Abutilon theophrasti, Chenopodium album, Acalypha australis, Solanum nigrum were collected in Qingdao of Shandong Province; Echinochloa caudate were collected in Pingluo of Ningxia Province.
# (§2) The above weeds were cultivated by a pot culture method. […] Full and uniform weed seeds were selected, soaked in warm water at 25° C. for 6 hours, and germinated in a 28° C. biochemical incubator (darkness). The weed seeds that had just germinatedwere evenly placed on the surface of the soil and then covered with 0.5-1 cm soil according to the sizes of seeds.
# (§3) The culture was carried out in a controllable sunlight greenhouse at 20 to 30° C., in natural light, and relative humidity of 57% to 72%.
# (§4) The technical materials were all dissolved in acetone, and diluted with an aqueous solution containing 0.1% emulsifier Tween-80. The dilution is performed as required.
# (§5) A ratio of the active ingredient A to the active ingredient B and amounts thereof in each group depends on the characteristics and toxicity of the two agents, as well as the main application purpose of a corresponding formulation. Based on the pre-tests in this study, the dosage of the active ingredient A and B applied alone and in combination were shown in the tables. Water containing the solvent and emulsifier same with the above groups but free of the agents was used as a blank control.
# (§6) Table 1-48, 51-98, 101-148, 151-206: […] per treatment, that is, a total of 60 weeds were treated in one treatment.
# (§7) Table 1-48, 51-98, 101-148: The agents were used for only once in the experiment. In the stage of weeds with 3˜4 leaves, the weeds were thinned out to maintain 15 weeds per pot and 45 weeds for each treatment, then continued to be cultured to 5˜6 leaves stage of grassy weeds, 6˜7 leaves stage of broadleaf weeds, and treated.
# (§8) The well-cultured weeds were evenly placed on a platform with an area of 0.5 m^2, and a solution of agents was sprayed on the stems and leaves thereof by the 3WP-2000-type walking spray tower at a dosage of 450 kg/ha and at a spray pressure of 0.3 MPa. After all the solution was sprayed, the valve was closed. After 30 seconds, the door of the spray tower was opened, and the nutritional bowl was taken out. Then the valve was opened, and the spray tube was cleaned by spraying 50 ml of water.
# (§9) A pot-culture method was employed. For the cultivation of weeds, please refer to the Section 1.1), and “Pesticide guidelines for laboratory bioactivity tests—herbicides”. As to a method for applying agents, please refer to the section 2.3.2), that is, a foliage treatment was employed. After the treatment, the weeds were routinely cultured in a greenhouse.
# (§10) A method for investigating absolute number was employed, wherein whole seedlings of survival weeds were cut off with a blade along the soil surface, and the fresh weight of the weeds was weighed with an analytical balance. For dead weeds, the fresh weight thereof was zero.
# (§11) Table 1-48, 51-98, 101-148, 207-216: The investigation was performed after 24 days of the treatment for only once.
# [2] = system: Eleusine indica; test: as above
# From the text: as §1, §2, §3, §4, §5, §6, §7, §8, §9, §10, §11
# [3] = system: Conyza Canadensis; test: Post-emergence foliage spray, pot culture, fresh weight inhibition (Tables 151-206; 20 days)
# Experimental: (§12) Table 151-206: Digitaria sanguinalis, Amaranthus retroflexus, Conyza Canadensis, Capsella bursa-pastoris, Eleusine indica were collected in Huangdao of Shandong Province, Sinapis arvensis were collected in Sixian of Anhui Province, Alopecurus japonicus were collected in Tianchang of Anhui Province, Veronica didyma were collected in Siyang of Jiangsu Province.
# as §2, §3, §4, §5, §6
# (§13) Table 151-206: The agents were used for only once in the experiment. In the stage of weeds with 3˜4 leaves, the weeds were thinned out to maintain 15 weeds per pot and 45 weeds for each treatment, then continued to be cultured to 4˜5 leaves stage of grassy weeds, 5˜6 leaves stage of broadleaf weeds, and treated.
# as §8, §9, §10
# (§14) Table 151-206: The investigation was performed after 20 days of the treatment for only once.
# (§15) Theoretical fresh weight inhibition rate of a combination of two active ingredients in each group was calculated by the Gowing method (E0=X+Y−X*Y/100), and then compared with an actually measured inhibition rate (E), thereby effect of the combination (hereafter referred to as combined effect) on weeds was evaluated: the value of E-E0, which was greater than 10%, corresponded to a synergistic effect, the value of E-E0, which was less than −10%, corresponded to an antagonistic effect, and the value of E-E0, which was from −10% to 10%, corresponded to an additional effect.
# [4] = system: Solanum nigrum; test: Post-emergence foliage spray, pot culture, fresh weight inhibition (Tables 1-48, 51-98, 101-148; 24 days)
# From the text: as §1, §2, §3, §4, §5, §6, §7, §8, §9, §10, §11
# [5] = system: Veronica persica^2 (collected in Zhumadian of Henan Province); test: as above
# From the text: as §1, §2, §3, §4, §5, §6, §7, §8, §9, §10, §11
# [6] = system: Veronica didyma; test: Post-emergence foliage spray, pot culture, fresh weight inhibition (Tables 151-206; 20 days)
# Experimental: as §12, §2, §3, §4, §5, §6, §13, §8, §9, §10, §14, §15
# [7] = B alone 75 g a.i./ha, 20 days after treatment
# [8] = B alone 150 g a.i./ha, 20 days after treatment
# [9] = B alone 300 g a.i./ha, 20 days after treatment
# [10] = B alone 600 g a.i./ha, 20 days after treatment
compound,measurement,setting,value
CCn1ncc(C(=O)c2ccc(S(C)(=O)=O)c(COCC(F)(F)F)c2Cl)c1OC(=O)c1cn(C)nc1C [fenpyrazone],Control effect (%) of B applied alone in corresponding dose,[1]; B 7.5 g a.i./ha,5.5%
same,Control effect (%) of B applied alone in corresponding dose,[1]; B 15 g a.i./ha,14.8%
same,Control effect (%) of B applied alone in corresponding dose,[1]; B 30 g a.i./ha,39.9%
same,Control effect (%) of B applied alone in corresponding dose,[1]; B 60 g a.i./ha,79.2%
same,Control effect (%) of B applied alone in corresponding dose,"[2]; Table 79, 7.5 g a.i./ha",2.9%
same,Control effect (%) of B applied alone in corresponding dose,"[2]; Table 79, 15 g a.i./ha",10.9%
same,Control effect (%) of B applied alone in corresponding dose,"[2]; Table 79, 30 g a.i./ha",38.6%
same,Control effect (%) of B applied alone in corresponding dose,"[2]; Table 79, 60 g a.i./ha",79.1%
C[n+]1ccc(-c2cc[n+](C)cc2)cc1 [paraquat dichloride],Control effect (%) of B applied alone in corresponding dose,"[3]; B 75 g a.i./ha, 20 days",3.2%
same,Control effect (%) of B applied alone in corresponding dose,"[3]; B 150 g a.i./ha, 20 days",17.2%
same,Control effect (%) of B applied alone in corresponding dose,"[3]; B 300 g a.i./ha, 20 days",47.9%
same,Control effect (%) of B applied alone in corresponding dose,"[3]; B 600 g a.i./ha, 20 days",75.2%
same,Control effect (%) of B applied alone in corresponding dose,[3]; [7],3.2%
same,Control effect (%) of B applied alone in corresponding dose,[3]; [8],17.2%
same,Control effect (%) of B applied alone in corresponding dose,[3]; [9],47.9%
same,Control effect (%) of B applied alone in corresponding dose,[3]; [10],75.2%
O=C(Nc1ccc(F)cc1F)c1cccnc1Oc1cccc(C(F)(F)F)c1 [diflufenican],Control effect (%) of B applied alone in corresponding dose,[4]; B 15 g a.i./ha,6.0%
same,Control effect (%) of B applied alone in corresponding dose,[4]; B 30 g a.i./ha,15.0%
same,Control effect (%) of B applied alone in corresponding dose,[4]; B 60 g a.i./ha,41.7%
same,Control effect (%) of B applied alone in corresponding dose,[4]; B 120 g a.i./ha,76.5%
same,Control effect (%) of B applied alone in corresponding dose,"[5]; Table 87, 15 g a.i./ha",2.3%
same,Control effect (%) of B applied alone in corresponding dose,"[5]; Table 87, 30 g a.i./ha",10.2%
same,Control effect (%) of B applied alone in corresponding dose,"[5]; Table 87, 60 g a.i./ha",40.3%
same,Control effect (%) of B applied alone in corresponding dose,"[5]; Table 87, 120 g a.i./ha",76.2%
CS(=O)(=O)c1ccc(C(=O)C2C(=O)CCCC2=O)c([N+](=O)[O-])c1 [mesotrione],Control effect (%) of B applied alone in corresponding dose,[1]; B 15 g a.i./ha,6.5%
same,Control effect (%) of B applied alone in corresponding dose,[1]; B 30 g a.i./ha,13.4%
same,Control effect (%) of B applied alone in corresponding dose,[1]; B 60 g a.i./ha,38.3%
same,Control effect (%) of B applied alone in corresponding dose,[1]; B 120 g a.i./ha,75.2%
same,Control effect (%) of B applied alone in corresponding dose,"[2]; Table 82, 15 g a.i./ha",4.0%
same,Control effect (%) of B applied alone in corresponding dose,"[2]; Table 82, 30 g a.i./ha",10.9%
same,Control effect (%) of B applied alone in corresponding dose,"[2]; Table 82, 60 g a.i./ha",36.9%
same,Control effect (%) of B applied alone in corresponding dose,"[2]; Table 82, 120 g a.i./ha",75.0%
O=C1C(Cl)C(CCl)CN1c1cccc(C(F)(F)F)c1 (stereo not shown) [flurochloridone],Control effect (%) of B applied alone in corresponding dose,[4]; B 75 g a.i./ha,5.5%
same,Control effect (%) of B applied alone in corresponding dose,[4]; B 150 g a.i./ha,13.7%
same,Control effect (%) of B applied alone in corresponding dose,[4]; B 300 g a.i./ha,45.8%
same,Control effect (%) of B applied alone in corresponding dose,[4]; B 600 g a.i./ha,79.7%
same,Control effect (%) of B applied alone in corresponding dose,"[5]; Table 88, 75 g a.i./ha",2.1%
same,Control effect (%) of B applied alone in corresponding dose,"[5]; Table 88, 150 g a.i./ha",12.3%
same,Control effect (%) of B applied alone in corresponding dose,"[5]; Table 88, 300 g a.i./ha",44.5%
same,Control effect (%) of B applied alone in corresponding dose,"[5]; Table 88, 600 g a.i./ha",79.6%
CCOC(=O)C(Cl)Cc1cc(-n2nc(C)n(C(F)F)c2=O)c(F)cc1Cl (stereo not shown) [carfentrazone-ethyl],Control effect (%) of B applied alone in corresponding dose,[4]; B 1.875 g a.i./ha,6.3%
same,Control effect (%) of B applied alone in corresponding dose,[4]; B 3.75 g a.i./ha,12.1%
same,Control effect (%) of B applied alone in corresponding dose,[4]; B 7.5 g a.i./ha,38.0%
same,Control effect (%) of B applied alone in corresponding dose,[4]; B 15 g a.i./ha,68.7%
same,Control effect (%) of B applied alone in corresponding dose,"[5]; Table 90, 1.875 g a.i./ha",2.6%
same,Control effect (%) of B applied alone in corresponding dose,"[5]; Table 90, 3.75 g a.i./ha",11.6%
same,Control effect (%) of B applied alone in corresponding dose,"[5]; Table 90, 7.5 g a.i./ha",36.2%
same,Control effect (%) of B applied alone in corresponding dose,"[5]; Table 90, 15 g a.i./ha",68.2%
c1cc[n+]2c(c1)-c1cccc[n+]1CC2 [diquat Dibromide monohydrate],Control effect (%) of B applied alone in corresponding dose,"[6]; B 75 g a.i./ha, 20 days",5.5%
same,Control effect (%) of B applied alone in corresponding dose,"[6]; B 150 g a.i./ha, 20 days",12.6%
same,Control effect (%) of B applied alone in corresponding dose,"[6]; B 300 g a.i./ha, 20 days",41.3%
same,Control effect (%) of B applied alone in corresponding dose,"[6]; B 600 g a.i./ha, 20 days",80.4%
same,Control effect (%) of B applied alone in corresponding dose,[6]; [7],5.5%
same,Control effect (%) of B applied alone in corresponding dose,[6]; [8],12.6%
same,Control effect (%) of B applied alone in corresponding dose,[6]; [9],41.3%
same,Control effect (%) of B applied alone in corresponding dose,[6]; [10],80.4%
CS(=O)(=O)c1ccc(C(=O)C2C(=O)CCCC2=O)c(Cl)c1COCC(F)(F)F [tembotrione],Control effect (%) of B applied alone in corresponding dose,[1]; B 3.75 g a.i./ha,4.0%
same,Control effect (%) of B applied alone in corresponding dose,[1]; B 7.5 g a.i./ha,12.3%
same,Control effect (%) of B applied alone in corresponding dose,[1]; B 15 g a.i./ha,41.0%
same,Control effect (%) of B applied alone in corresponding dose,[1]; B 30 g a.i./ha,73.4%
same,Control effect (%) of B applied alone in corresponding dose,"[2]; Table 83, 3.75 g a.i./ha",5.4%
same,Control effect (%) of B applied alone in corresponding dose,"[2]; Table 83, 7.5 g a.i./ha",12.3%
same,Control effect (%) of B applied alone in corresponding dose,"[2]; Table 83, 15 g a.i./ha",39.7%
same,Control effect (%) of B applied alone in corresponding dose,"[2]; Table 83, 30 g a.i./ha",73.1%
